Where two headings read alike, the source gives them in different places.
Experiments:
Human PDE10A enzyme = molecular target: T1, Human PDE10A enzyme (Homo sapiens, UniProt Q9Y233); assay: PDE enzyme inhibition, SPA (Scintillation Proximity Assay); format: biochemical; settings: for inhibition at 1 µM: compound at 1 μM, read-out: Percent inhibition (1 μM); for IC50: human PDE10A, [3H]cGMP substrate
T1 construct: Human PDE10A enzyme was generated from Sf9 or COS-7 cells transfected with the full-length gene; His-tag; made in house; host or cells: Sf9 or COS-7 cells
Procedure: Human PDE10A enzyme was generated from Sf9 or COS-7 cells transfected with the full-length gene. Cloned enzyme was extracted from homogenized cell pellets. The extracted enzyme from Sf9 cells was partially purified using His-tag affinity column. The enzyme was stored at −70° C. until use. PDE activity was measured using a SPA (Scintillation Proximity Assay) (GE Healthcare). To evaluate the inhibitory activity, 10 μL of serial diluted compounds were incubated with 20 μL of PDE enzyme in assay buffer (50 mM HEPES-NaOH, 8.3 mM MgCl2, 1.7 mM EGTA, 0.1% BSA (pH 7.4)) for 30 min. at room temperature. Final concentration of DMSO in the assay was 1 percent as compounds were tested in duplicate in 96-well half-area plates (Corning). To start the reaction, 10 μL of substrate [3H] cGMP (25 or 50 nM; enclosed in SPA kits from GE Healthcare or purchased from PerkinElmer, respectively) was added for a final assay volume of 40 μL. After 60 min incubation at room temperature, yttrium SPA beads containing Zinc sulphate were added (20 μL at 6 mg/mL) to terminate the PDE reaction. After being settled for 60 min., assay plates were counted in a scintillation counter (PerkinElmer) to allow calculation of inhibition rate and IC50. Inhibition rate was calculated on the basis of 0% control wells with DMSO and 100% control wells without enzyme.

[1] = Table 1, compound at 0.1 μM as noted in cell, read-out: Percent inhibition (at 0.1 μM)

T1 sequence (Q9Y233 267-1055): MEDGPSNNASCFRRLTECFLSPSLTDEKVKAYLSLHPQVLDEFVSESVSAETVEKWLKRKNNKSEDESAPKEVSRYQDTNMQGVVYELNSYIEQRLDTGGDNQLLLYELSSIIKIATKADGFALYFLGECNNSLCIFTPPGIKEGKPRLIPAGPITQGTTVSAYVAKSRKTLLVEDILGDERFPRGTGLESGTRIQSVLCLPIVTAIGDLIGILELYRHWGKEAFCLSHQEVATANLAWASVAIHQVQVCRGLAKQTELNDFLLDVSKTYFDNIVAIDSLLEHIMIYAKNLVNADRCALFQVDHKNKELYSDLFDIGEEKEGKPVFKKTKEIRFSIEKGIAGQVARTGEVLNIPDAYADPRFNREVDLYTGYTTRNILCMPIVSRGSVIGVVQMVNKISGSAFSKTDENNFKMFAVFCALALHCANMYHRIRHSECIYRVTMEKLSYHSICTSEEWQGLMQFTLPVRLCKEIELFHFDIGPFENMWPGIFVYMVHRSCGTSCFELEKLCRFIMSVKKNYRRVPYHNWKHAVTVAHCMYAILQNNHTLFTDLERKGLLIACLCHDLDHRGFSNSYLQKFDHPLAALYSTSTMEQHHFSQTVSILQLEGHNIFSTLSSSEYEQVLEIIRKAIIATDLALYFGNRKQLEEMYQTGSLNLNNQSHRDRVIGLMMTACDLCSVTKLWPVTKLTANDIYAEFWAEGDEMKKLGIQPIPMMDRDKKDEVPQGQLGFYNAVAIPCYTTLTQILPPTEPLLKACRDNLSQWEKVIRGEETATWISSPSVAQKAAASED

| Structure (SMILES) | melting point [°C] | inhibition at 1 µM (Human PDE10A enzyme; Table 1) [%] | IC50 (Human PDE10A enzyme; Table 1) [nM] | inhibition at 0.1 µM (Human PDE10A enzyme; [1]) [%] | inhibition at 0.1 µM (Human PDE10A enzyme; Table 2, compound at 0.1 μM, read-out: Percent inhibition (0.1 μM)) [%] | IC50 (Human PDE10A enzyme; Table 2) [nM] |
| --- | --- | --- | --- | --- | --- | --- |
| O=c1ccn(-c2cccc(C(F)(F)F)c2)nc1-c1ccnn1-c1ccccc1 [Example 10, 3-(1-Phenyl-1H-pyrazol-5-yl)-1-[3-(trifluoromethyl)phenyl]pyridazin-4(1H)-one] | 156 to 157 | 98 | 10 to 200 |  |  |  |
| COc1ccccc1-n1ccc(=O)c(-c2ccnn2-c2ccccc2)n1 [Example 13, 1-(2-Methoxyphenyl)-3-(1-phenyl-1H-pyrazol-5-yl)pyridazin-4(1H)-one] | 153 to 154 | 96 | 10 to 200 |  |  |  |
| O=c1ccn(-c2cccc(F)c2)nc1-c1ccnn1-c1ccccc1 [Example 15, 1-(3-Fluorophenyl)-3-(1-phenyl-1H-pyrazol-5-yl)pyridazin-4(1H)-one] | 170 to 171 | 97 | 10 to 200 |  |  |  |
| O=c1ccn(-c2ccccc2F)nc1-c1ccnn1-c1ccccc1 [Example 16, 1-(2-Fluorophenyl)-3-(1-phenyl-1H-pyrazol-5-yl)pyridazin-4(1H)-one] | 124 to 125 | 97 | 10 to 200 |  |  |  |
| O=c1ccn(-c2ccc(F)cc2)nc1-c1ccnn1-c1ccccc1 [Example 17, 1-(4-Fluorophenyl)-3-(1-phenyl-1H-pyrazol-5-yl)pyridazin-4(1H)-one] | 252 to 253 | 97 | 10 to 200 |  |  |  |
| O=c1ccn(-c2ccc(N3CCOCC3)cc2)nc1-c1ccnn1-c1ccccc1 [Example 23, 1-(4-Morpholin-4-ylphenyl)-3-(1-phenyl-1H-pyrazol-5-yl)pyridazin-4(1H)-one] | 205 to 206 | 102 | < 10 |  |  |  |
| O=c1ccn(-c2ccccc2OC(F)F)nc1-c1ccnn1-c1ccccc1 [Example 26, 1-[2-(Difluoromethoxy)phenyl]-3-(1-phenyl-1H-pyrazol-5-yl)pyridazin-4(1H)-one] | 123 to 124 | 97 | 10 to 200 |  |  |  |
| O=c1ccn(-c2cccnc2)nc1-c1ccnn1-c1ccccc1 [Example 30, 3-(1-Phenyl-1H-pyrazol-5-yl)-1-pyridin-3-ylpyridazin-4(1H)-one] | 176 to 177 |  | 10 to 200 | 87 |  |  |
| O=c1ccn(-c2ccccc2Cl)nc1-c1ccnn1-c1ccccc1 [Example 32, 1-(2-Chlorophenyl)-3-(1-phenyl-1H-pyrazol-5-yl)pyridazin-4(1H)-one] | 138 to 139 | 89 | 10 to 200 |  |  |  |
| CS(=O)(=O)c1cccc(-n2ccc(=O)c(-c3ccnn3-c3ccccc3)n2)c1 [Example 36, 1-[3-(Methylsulfonyl)phenyl]-3-(1-phenyl-1H-pyrazol-5-yl)pyridazin-4(1H)-one] | 199 to 200 |  | < 10 | 90 |  |  |
| O=c1ccn(-c2cccc(S(=O)(=O)c3nc4ccccc4[nH]3)c2)nc1-c1ccnn1-c1ccccc1 [Example 39, 1-[3-(1H-Benzimidazol-2-ylsulfonyl)phenyl]-3-(1-phenyl-1H-pyrazol-5-yl)pyridazin-4(1H)-one] | 160 to 161 | 98 | < 10 |  |  |  |
| COc1cn(-c2ccccc2F)nc(-c2ccnn2-c2ccccc2)c1=O [Example 52, 1-(2-Fluorophenyl)-5-methoxy-3-(1-phenyl-1H-pyrazol-5-yl)pyridazin-4(1H)-one] | 163 to 165 | 99 | < 10 |  |  |  |
| COc1cn(-c2cccc(C(F)(F)F)c2)nc(-c2ccnn2-c2ccccc2)c1=O [Example 54, 5-Methoxy-3-(1-phenyl-1H-pyrazol-5-yl)-1-[3-(trifluoromethyl)phenyl]pyridazin-4(1H)-one] | 139 to 141 | 100 | < 10 |  |  |  |
| COc1cn(-c2ccc(N3CCOCC3)cc2F)nc(-c2ccnn2-c2ccccc2)c1=O [Example 57, 1-(2-Fluoro-4-morpholin-4-ylphenyl)-5-methoxy-3-(1-phenyl-1H-pyrazol-5-yl)pyridazin-4(1H)-one] | 226 to 228 | 101 | < 10 |  |  |  |
| O=c1c(OC(F)F)cn(-c2ccccc2F)nc1-c1ccnn1-c1ccccc1 [Example 64, 5-(Difluoromethoxy)-1-(2-fluorophenyl)-3-(1-phenyl-1H-pyrazol-5-yl)pyridazin-4(1H)-one] | 109 to 114 | 94 | 10 to 200 |  |  |  |
| COc1cn(-c2ccc(O)cc2F)nc(-c2ccnn2-c2ccccc2)c1=O [Example 91, 1-(2-Fluoro-4-hydroxyphenyl)-5-methoxy-3-(1-phenyl-1H-pyrazol-5-yl)pyridazin-4(1H)-one] | 223 to 224 |  |  |  |  |  |

Further lines, results first:

| melting point [°C] | inhibition at 1 µM (Human PDE10A enzyme; Table 1) [%] | IC50 (Human PDE10A enzyme; Table 1) [nM] | inhibition at 0.1 µM (Human PDE10A enzyme; [1]) [%] | inhibition at 0.1 µM (Human PDE10A enzyme; Table 2, compound at 0.1 μM, read-out: Percent inhibition (0.1 μM)) [%] | IC50 (Human PDE10A enzyme; Table 2) [nM] | Structure (SMILES) |
| --- | --- | --- | --- | --- | --- | --- |
| 200 to 202 |  |  |  |  |  | COc1cn(-c2cc3c(cc2F)OC(F)(F)O3)nc(-c2ccnn2-c2ccccc2)c1=O [Example 95, 5-Methoxy-3-(1-phenyl-1H-pyrazol-5-yl)-1-(2,2,6-trifluoro-1,3-benzodioxol-5-yl)pyridazin-4(1H)-one] |
| 192 to 194 |  |  |  |  |  | COc1cn(-c2cc3c(cc2F)OC(F)(F)C(F)(F)O3)nc(-c2ccnn2-c2ccccc2)c1=O [Example 96, 5-Methoxy-1-(2,2,3,3,7-pentafluoro-2,3-dihydro-1,4-benzodioxin-6-yl)-3-(1-phenyl-1H-pyrazol-5-yl)pyridazin-4(1H)-one] |
| 189 to 194 |  |  |  | 104 | < 10 | COc1cn(-c2ccc(N3CCC3=O)cc2F)nc(-c2ccnn2-c2ccccc2)c1=O [Example 107, 1-[2-Fluoro-4-(2-oxoazetidin-1-yl)phenyl]-5-methoxy-3-(1-phenyl-1H-pyrazol-5-yl)pyridazin-4(1H)-one] |
| 200 to 202 |  |  |  |  |  | COc1cn(-c2ccc(-c3c(C)noc3C)cc2F)nc(-c2ccnn2-c2ccccc2)c1=O [Example 112, 1-[4-(3,5-Dimethylisoxazol-4-yl)-2-fluorophenyl]-5-methoxy-3-(1-phenyl-1H-pyrazol-5-yl)pyridazin-4(1H)-one] |
| 105 to 107 |  |  |  |  |  | O=c1ccn(-c2cccc3c2OC(F)(F)O3)nc1-c1ccnn1-c1ccccc1 [Example 142, 1-(2,2-Difluoro-1,3-benzodioxol-4-yl)-3-(1-phenyl-1H-pyrazol-5-yl)pyridazin-4(1H)-one] |
| 155 to 157 |  |  |  |  |  | O=c1ccn(-c2cccc(C(F)(F)F)c2)nc1-c1ccnn1CC1CC1 [Example 152, 3-[1-(Cyclopropylmethyl)-1H-pyrazol-5-yl]-1-[3-(trifluoromethyl)phenyl]pyridazin-4(1H)-one] |
| 156 to 157 |  |  |  |  |  | O=c1ccn(-c2cccc(C(F)(F)F)c2)nc1-c1ccnn1Cc1ccccc1 [Example 153, 3-(1-Benzyl-1H-pyrazol-5-yl)-1-[3-(trifluoromethyl)phenyl]pyridazin-4(1H)-one] |
| 159 to 161 |  |  |  |  |  | COc1ccc(Cn2nccc2-c2nn(-c3cccc(C(F)(F)F)c3)ccc2=O)cc1 [Example 154, 3-[1-(4-Methoxybenzyl)-1H-pyrazol-5-yl]-1-[3-(trifluoromethyl)phenyl]pyridazin-4(1H)-one] |
| 210 to 212 |  |  |  |  |  | COc1cn(-c2cccnc2)nc(-c2ccnn2-c2ccccc2)c1=O [Example 173, 5-Methoxy-3-(1-phenyl-1H-pyrazol-5-yl)-1-pyridin-3-ylpyridazin-4(1H)-one] |
| 171 to 174 |  |  |  |  |  | COc1cn(-c2cc(N3CCCC3=O)ccc2F)nc(-c2ccnn2-c2ccccc2)c1=O [Example 182, 1-[2-Fluoro-5-(2-oxopyrrolidin-1-yl)phenyl]-5-methoxy-3-(1-phenyl-1H-pyrazol-5-yl)pyridazin-4(1H)-one] |
| 200 to 201 |  |  |  |  |  | COc1cn(-c2ccc(N3CC4(CC4)OC3=O)cc2F)nc(-c2ccnn2-c2ccccc2)c1=O [Example 191, 6-{3-Fluoro-4-[5-methoxy-4-oxo-3-(1-phenyl-1H-pyrazol-5-yl)pyridazin-1(4H)-yl]phenyl}-4-oxa-6-azaspiro[2.4]heptan-5-one] |
| 139 to 141 |  |  |  |  |  | COc1cc(=O)c(-c2ccnn2-c2ccccc2)nn1-c1cccc(C(F)(F)F)c1 [Example 193, 6-Methoxy-3-(1-phenyl-1H-pyrazol-5-yl)-1-[3-(trifluoromethyl)phenyl]pyridazin-4(1H)-one] |

Reference: patent publication US8513251B2, “Pyridazinone compounds” (Takeda Pharmaceutical Company Limited, priority 2009, dated 2013)
